According to US20030113916A1, “Method for producing somatic embryos of scot pine (p sylvestris)” (priority 2000, published 2003):

Test system: embryogenic cell lines F1, F2-1, F2-2, F2-3 (previously cryopreserved)
Assay: Maturation of somatic embryos on media with different ammonium to nitrate molar ratios and carbon sources
Type: cell-based, Pinus sylvestris
Conditions: ABA tested at 20, 35 y 60 μM in previous evaluation
Procedure: For maturation process is highly relevant the interaction between nitrogen and carbon source, and the type of the carbon source. […] High concentration of abscisic acid has to be added when starting maturation in order to acquire best quality embryos and avoiding precocious germination; high average of conifers protocols ABA concentration varying between 16 μM and 24 μM. However for Pinus genera ABA is required between 60 μM and 100 μM. […] In order to produce gymnosperm mature somatic embryos with normal germination, is required such embryos developing on medium supplemented with high concentration of desiccant compound.
Under the evaluation done to produce normal embryos, was utilized between 400 and 600 mg of embryogenic tissue per sample, such amount was dispersed on filter paper as no thin layer, with two washing only with liquid mineral medium and they were exposed only two weeks on medium supplemented with activated charcoal.

## CC1=CC(=O)CC(C)(C)[C@@]1(O)/C=C/C(C)=C\C(=O)O [ABA, abscisic acid]
  Effect on maturation of the cell lines: non effect
